The results in this text go back to PMC11234460, “In Silico Discovery of Stapled Peptide Inhibitor Targeting the Nur77‐PPARγ Interaction and Its Anti‐Breast‐Cancer Efficacy” (Advanced Science, 2024).

Where a SMILES comes first, the peptide text is derived from it. Bridges are numbered along the chain shown (N, C = ends). [ ]: non-standard residue; d: D form. S5 = C=CCCC[C@](C)(N)C(=O)O

One data set is described as follows: Solubility test in PBS. It counts as physicochemical. The conditions noted are these: 1 mg in 50 µL, gradient diluted from 20 to 0.078125 mg mL^−1, OD at 600 nm (turbidity), plate reader. The protocol: Mix 1 mg ST‐CY14 or Csn‐B (Shanghai Sunny Biotech) in 50 µL PBS buffer, and then transfer 40 µL the suspension to a 96‐well plate. The suspension was gradient diluted from 20 to 0. 07 8125 mg mL^−1. OD values were measured at 600 nm on a Cytation 5 (Biotek, USA) plate reader. PBS was set as a blank control.

The target in the next data set is T1, Nur77-PPARγ complex (Homo sapiens, UniProt P22736).
T1 construct: expressed in transfected cells; host or cells: HEK293T
As to the kind of experiment: NanoBiT assay of Nur77-PPARγ complex formation in HEK293T cells. It counts as cell-based. The conditions noted are these: 1 × 10^−5 M peptide, 1 h, n = 3. The protocol: HEK293T cells were seeded in a poly‐d‐lysine‐coated black 96‐well cell culture plate at 10 000 cells per well in 100 µL culture medium. The next day, the master mix of 100 ng receptor construct containing the PPARγ‐LargeBit and SmallBit‐Nur77 plasmids (w/w, 50 ng:50 ng) was diluted in Opti‐MEM Medium (Gibco, 11058‐021), then P3000 Reagent was added. Meanwhile, 0.15 µL Lipofectamine 3000 reagent (ThermoFisher, L3000015) was added to 5 µL Opti‐MEM Medium. Subsequently, diluted DNA was added to Lipofectamine 3000 reagent (V/V, 1:1) and incubated for 15 min at room temperature. A mixture containing the above plasmids and Lipofectamine 3000 was prepared and added to each well. After 24 h, the cells were treated with 1 × 10^−5 M peptides (TAT, T‐CY14, S‐CY14, and ST‐CY14) or variable concentrations of ST‐CY‐14 (0.1/0.2/0.5/1/2/5/10/20/40 × 10^−6 M) for 1 h. The culture medium was replaced with 90 µL Tyrode's solution (Solarbio, T1420). Then, 10 µL furimazine (5 × 10^−5 M) was added to each well and the luminescence signal was measured every 86 s for 1 h at 37 °C.

Data set [1] can be described thus: CD spectroscopy, α-helicity. It counts as physicochemical. The conditions noted are these: 5 × 10^−5 M peptide in H2O, 25 °C, 1 mm cuvette, 185-260 nm. The protocol:
The detection wavelengths of the peptides were 214 and 254 nm. Solvent A: H2O (containing 0.1% TFA) and solvent B: acetonitrile (containing 0.1% TFA) were used as solvents in linear gradient mixtures. Peptide purification was performed by semi‐preparative HPLC using an XBridge Prep C18 column (19 × 250 mm, 10 µm particle size, flow rate of 20 mL min^−1). Solvents A and B were the same as those in the peptide analysis procedure. The peptides were dissolved in H2O to a final concentration of 5 × 10^−5 M. The purified peptide was detected using a mass spectrometer (6410 Triple Quad LC/MS, Agilent, USA) (Table S2, Supporting Information). The solvent was 80% methanol and 20% H2O (containing 0.1% formic acid). The CD spectra were obtained with a 1 mm quartz cuvette on a BRIGHT TIME Chirasca (Applied Photophysics, Britain) spectropolarimeter with a scan wavelength between 185–260 nm at 25 °C. The helicity of each peptide was calculated by the literature equation.^[ [24] ^]

The subject of data set [2] is MDA-MB-231 cells. As to the kind of experiment: Western blot of Nur77, CD36 and FABP4. It counts as cell-based. The protocol: (§1) MCF7 and MDA‐MB‐231 cells were treated with various concentrations of peptide. The cells were then collected and lysed in NP40 lysis buffer. Total protein was quantified using a BCA assay kit (Beyotime, P0010S). The proteins were separated by SDS‐PAGE and transferred onto a PVDF membrane. The PVDF membrane was blocked in TBST containing 5% non‐fat milk, and then incubated with primary antibodies overnight at 4 °C. Subsequently, membranes were incubated with horseradish peroxidase‐conjugated antirabbit or antimouse IgG secondary antibody for 1 h at room temperature. The membranes were analyzed by a Tanon‐5200 Multi Gel Imaging Analysis System (Tanon) and quantified by ImageJ software.

Data set [3] deals with MDA-MB-231 cells. Kind of data set: Scratch (wound-healing) assay. It counts as cell-based. The conditions noted are these: MDA-MB-231, 12 h. How it is done:
(§2) MCF7 and MDA‐MB‐231 cells were seeded in 6‐well plates and cultured overnight. Once the cell density reached 90%, a line was scratched along the center of the 6‐well plate and images were taken randomly in the scratch domain under a microscope. The cells in each well were then treated with peptides of varying concentrations for 12 h, after which images were taken again in the scratch domain. The formula used to calculate the scratch healing rate was as follows: Scratch healing rate (%) = [(Scratch area at 0 h – Scratch area at 12 h) […] Scratch area at 0 h] × 100%.

The test system of data set [4] is MCF7 cells. As to the kind of experiment: Scratch (wound-healing) assay. It counts as cell-based, human. The conditions noted are these: MCF7, 12 h. How it is done:
as §2

The subject of data set [5] is MCF7 cells. As to the kind of experiment: Western blot of Nur77, CD36 and FABP4. It counts as cell-based, human. How it is done: as §1
(In general: In western blotting, separated proteins are transferred to a membrane and probed.)

In data set [6] the test system is MDA-MB-231 cells. Kind of data set: Transwell cell migration analysis. It counts as cell-based. The conditions noted are these: MDA-MB-231, 12 h. How it is done: (§3) 600 µL DMEM complete medium was added to the lower chamber of the Transwell. Next, 2×10^4 cells in 100 µL DMEM medium, containing 1, 2, 5, 10, or 2 × 10^−5 M peptides, were added to the upper chamber of the Transwell. The cells were incubated for 12 h at 37 °C and 5% CO2. After the incubation period, the medium was discarded, and the chamber was washed with PBS. The cells were then fixed with 4% paraformaldehyde for 20 min. The upper chamber was subsequently soaked in crystal violet for 20 min, washed with PBS, and observed under a microscope for analysis.

Another data set deals with α-chymotrypsin. Kind of data set: Protease stability in α-chymotrypsin solution. It counts as in vitro ADME. The conditions noted are these: α-chymotrypsin solution; α-chymotrypsin 0.5 ng µL^−1 in PBS (5 × 10^−2 M, 2 × 10^−3 M CaCl2, pH 7.4); 100 µL of 1 × 10^−3 M peptide + 1 mL enzyme; room temperature; 5-480 min; quenched with 1 M HCl; analytical HPLC at 214 nm. How it is done:
The peptides were dissolved in PBS (pH 7.4) to a final concentration of 1 × 10^−3 M. α‐Chymotrypsin was dissolved in PBS (5 × 10^−2 M, containing 2 × 10^−3 M CaCl2, pH 7.4) to a final concentration of 0.5 ng µL^−1. Subsequently, 100 µL peptides were incubated with α‐chymotrypsin (1 mL) at room temperature, and 100 µL of the digestion mixture was collected at different times (5/10/20/30/60/120/240/480 min) and added to a centrifuge tube containing 20 µL of 1 M HCl to quench the enzymatic reaction. The solution of α‐Chymotrypsin peptide fragments was monitored by analytical HPLC to determine the fraction of protease degradation at 214 nm.

The subject of data set [7] is MCF7 cells. As to the kind of experiment: Transwell cell migration analysis. It counts as cell-based, human. The conditions noted are these: MCF7, 12 h. The protocol: as §3

T1 sequence (P22736 whole entry, one chain of several): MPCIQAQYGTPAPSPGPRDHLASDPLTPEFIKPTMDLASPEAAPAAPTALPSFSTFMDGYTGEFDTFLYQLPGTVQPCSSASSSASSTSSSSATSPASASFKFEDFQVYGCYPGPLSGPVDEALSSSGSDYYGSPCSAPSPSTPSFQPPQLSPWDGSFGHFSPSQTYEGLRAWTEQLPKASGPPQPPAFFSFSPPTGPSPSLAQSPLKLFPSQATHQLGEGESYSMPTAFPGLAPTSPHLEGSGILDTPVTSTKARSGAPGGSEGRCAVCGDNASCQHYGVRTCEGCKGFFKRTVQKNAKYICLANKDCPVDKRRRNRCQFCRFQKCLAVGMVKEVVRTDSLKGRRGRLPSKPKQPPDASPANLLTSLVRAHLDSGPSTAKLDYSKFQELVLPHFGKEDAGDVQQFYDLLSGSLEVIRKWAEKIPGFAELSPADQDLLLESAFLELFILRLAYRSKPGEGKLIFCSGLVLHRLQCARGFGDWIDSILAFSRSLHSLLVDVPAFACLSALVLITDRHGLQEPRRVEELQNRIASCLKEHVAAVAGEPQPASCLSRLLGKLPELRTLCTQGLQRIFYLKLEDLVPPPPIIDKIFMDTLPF

In the case of `CCCCCCCC(=O)c1c(O)cc(O)cc1CC(=O)OCC` [Csn-B, cytosporone B, reference compound], the “Solubility in PBS” value in “Solubility test in PBS” is listed as “≈ 1 mg mL^−1”.
Consider `C[C@@H](O)[C@@H]1NC(=O)[C@H](CCCNC(=N)N)NC(=O)[C@H](CCCNC(=N)N)NC(=O)[C@@](C)(NC(=O)[C@H](Cc2ccccc2)NC(=O)CNC(=O)[C@H](CCCCN)NC(=O)[C@H](CS)NC(=O)CNC(=O)[C@H](CCC(=O)O)NC(=O)[C@@H](N)CS)CCCC=CCCC[C@@](C)(C(=O)N[C@@H](CCCNC(=N)N)C(=O)N[C@@H](Cc2ccc(O)cc2)C(N)=O)NC1=O` [S-CY14] (H-CEGCKGF[S5]RRT[S5]RY-NH2; staple 8-12), for which the “Effect on NanoBiT luminescence (Nur77-PPARγ complex)” value at Nur77-PPARγ complex is reported as “minimal effects on the luminescence”. In addition, in data set [1], the “α-Helicity (CD)” value came out at 15.6%.
Take `CC[C@H](C)[C@H](NC(=O)[C@@H](NC(=O)[C@H](CCCNC(=N)N)NC(=O)[C@H](CCCNC(=N)N)NC(=O)[C@H](Cc1ccccc1)NC(=O)[C@H](Cc1ccccc1)NC(=O)CNC(=O)[C@H](CCCCN)NC(=O)[C@H](CS)NC(=O)CNC(=O)[C@H](CCC(=O)O)NC(=O)[C@@H](N)CS)[C@@H](C)O)C(=O)N[C@@H](CCCNC(=N)N)C(=O)N[C@@H](Cc1ccc(O)cc1)C(=O)N[C@@H](Cc1ccc(O)cc1)C(=O)NCC(=O)N[C@@H](CCCNC(=N)N)C(=O)N[C@@H](CCCCN)C(=O)N[C@@H](CCCCN)C(=O)N[C@@H](CCCNC(=N)N)C(=O)N[C@@H](CCCNC(=N)N)C(=O)N[C@@H](CCC(N)=O)C(=O)N[C@@H](CCCNC(=N)N)C(=O)N[C@@H](CCCNC(=N)N)C(=O)N[C@@H](CCCNC(=N)N)C(N)=O` [T-CY14] (H-CEGCKGFFRRTIRYYGRKKRRQRRR-NH2): the “CD36 and FABP4 protein expression (immunoblot)” value in the data set on MDA-MB-231 cells [2] was “had some effect, but its efficacy was much lower”; in the data set on MCF7 cells [5] it was “had some effect, but its efficacy was much lower”. Moreover, the “Nur77 protein expression (immunoblot)” value in the data set on MDA-MB-231 cells [2] and with MCF7 cells [5] was “increase in Nur77 expression” throughout. Besides, the Scratch healing result in the data set on MDA-MB-231 cells [3] and in the data set with MCF7 cells [4] was “suppressed the scratch healing” each time. Also, the Transwell transmigration entry in the data set with MDA-MB-231 cells [6] and with MCF7 cells [7] was “inhibited the transmigration” each time. Moreover, the half-life – broadly, the time in which the quantity being followed falls by half – at 90.9 µM with α-chymotrypsin stood at 4.94 min.
Take `N=C(N)NCCC[C@H](NC(=O)[C@H](CCCNC(=N)N)NC(=O)[C@H](CCCNC(=N)N)NC(=O)[C@H](CCC(N)=O)NC(=O)[C@H](CCCNC(=N)N)NC(=O)[C@H](CCCNC(=N)N)NC(=O)[C@H](CCCCN)NC(=O)[C@H](CCCCN)NC(=O)[C@H](CCCNC(=N)N)NC(=O)CNC(=O)[C@@H](N)Cc1ccc(O)cc1)C(N)=O` [TAT, reference compound]: the “Effect on NanoBiT luminescence (Nur77-PPARγ complex)” value at Nur77-PPARγ complex is listed as “minimal effects on the luminescence”.
